Laboratory results published in ChEMBL document CHEMBL1201862, “PubChem BioAssay data set” (2004).
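Cultured in 96-well plates, cells were exposed to test compound for 48 hours across five concentrations. Here, GI50 denotes the concentration required for 50% inhibition of growth.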 Activity calls are given as the source filed them. Cut-off read from the data, not from the text of the source: active = GI50 up to about 1.1 µM and inactive = higher.

Experiments:
Assay in all cases: NCI tumour cell line growth inhibition, 48 h
Malme-3M = tested on: Malme-3M
T47D = tested on: T47D
LOX IMVI = tested on: LOX IMVI
IGROV-1 = tested on: IGROV-1
COLO 205 = tested on: COLO 205
CCRF-CEM = tested on: CCRF-CEM
SK-MEL-2 = tested on: SK-MEL-2
A498 = tested on: A498
UACC-257 = tested on: UACC-257
HCT-15 = tested on: HCT-15
SK-OV-3 = tested on: SK-OV-3
KM12 = tested on: KM12
MDA-MB-435 = tested on: MDA-MB-435
OVCAR-3 = tested on: OVCAR-3
DU-145 = tested on: DU-145
NCI-H522 = tested on: NCI-H522
HL-60 = tested on: HL-60
RXF 393 = tested on: RXF 393
SR = tested on: SR
HOP-62 = tested on: HOP-62

Measured: GI50

CC(=O)N[C@@H](Cc1ccc(O)cn1)C(=O)NCc1cccc(F)c1
> 100 µM: HCT-15
inactive: Malme-3M > 100 µM | T47D > 100 µM | LOX IMVI > 100 µM | IGROV-1 > 100 µM | COLO 205 > 100 µM | CCRF-CEM > 100 µM | SK-MEL-2 > 100 µM | A498 > 100 µM | UACC-257 > 100 µM | SK-OV-3 > 100 µM | KM12 > 100 µM | MDA-MB-435 > 100 µM | OVCAR-3 > 100 µM | DU-145 > 100 µM | NCI-H522 > 100 µM | HL-60 > 100 µM | RXF 393 > 100 µM | SR 59.7 µM | HOP-62 > 100 µM

O=C1C(c2c(O)[nH]c3ccc(Br)cc23)=Nc2ccc(Br)cc21
43 µM: HCT-15
inactive: Malme-3M 46 µM | T47D > 100 µM | LOX IMVI 62.1 µM | IGROV-1 1.71 µM | COLO 205 > 100 µM | CCRF-CEM 63.5 µM | SK-MEL-2 > 100 µM | A498 > 100 µM | UACC-257 > 100 µM | SK-OV-3 28.9 µM | KM12 44.2 µM | MDA-MB-435 40.7 µM | OVCAR-3 > 100 µM | DU-145 25.4 µM | NCI-H522 83 µM | HL-60 86.5 µM | RXF 393 16.6 µM | SR 32.1 µM | HOP-62 42.1 µM

O=C(CN(c1ccc(S(=O)(=O)O)cc1)c1ccc(S(=O)(=O)O)cc1)Nn1cnc2ccc(S(=O)(=O)N(c3ccc(S(=O)(=O)O)cc3)c3ccc(S(=O)(=O)O)cc3)cc2c1=O
> 100 µM: HCT-15
inactive: Malme-3M > 100 µM | T47D > 100 µM | LOX IMVI > 100 µM | IGROV-1 61.2 µM | COLO 205 > 100 µM | CCRF-CEM > 100 µM | SK-MEL-2 > 100 µM | A498 > 100 µM | UACC-257 > 100 µM | SK-OV-3 > 100 µM | KM12 > 100 µM | MDA-MB-435 > 100 µM | OVCAR-3 > 100 µM | DU-145 > 100 µM | NCI-H522 > 100 µM | HL-60 > 100 µM | RXF 393 > 100 µM | SR > 100 µM | HOP-62 > 100 µM

Clc1ccc(-c2ccc(-c3nnc(COc4ccc(OCc5nnc(-c6ccc(-c7ccc(Cl)cc7Cl)o6)o5)c(Cl)c4)o3)o2)c(Cl)c1
> 100 µM: HCT-15
inactive: T47D > 100 µM | LOX IMVI > 100 µM | IGROV-1 > 100 µM | COLO 205 > 100 µM | CCRF-CEM 32.4 µM | SK-MEL-2 25.3 µM | A498 > 100 µM | UACC-257 > 100 µM | KM12 > 100 µM | MDA-MB-435 > 100 µM | OVCAR-3 > 100 µM | DU-145 > 100 µM | NCI-H522 > 100 µM | HL-60 > 100 µM | RXF 393 16.2 µM | SR 28.8 µM | HOP-62 36.6 µM

COc1cc(Nc2nc3ccccc3nc2C(C)C)cc(OC)c1OC
90.4 µM: HCT-15
inactive: Malme-3M > 100 µM | T47D > 100 µM | LOX IMVI > 100 µM | IGROV-1 > 100 µM | COLO 205 > 100 µM | CCRF-CEM > 100 µM | SK-MEL-2 > 100 µM | A498 > 100 µM | UACC-257 > 100 µM | SK-OV-3 > 100 µM | KM12 > 100 µM | MDA-MB-435 > 100 µM | OVCAR-3 > 100 µM | DU-145 > 100 µM | NCI-H522 81.7 µM | HL-60 > 100 µM | RXF 393 > 100 µM | SR > 100 µM | HOP-62 > 100 µM

CCCCCC(C)SC1(C(=O)OC)CC(OC(C)=O)C(NC(C)=O)C([C@H](OC(C)=O)[C@@H](COC(C)=O)OC(C)=O)O1 (stereo partly drawn)
inactive: Malme-3M 44.1 µM | T47D 45.6 µM | IGROV-1 > 100 µM | A498 67.1 µM | UACC-257 33 µM | KM12 66.7 µM | MDA-MB-435 70.1 µM | OVCAR-3 90.4 µM | DU-145 > 100 µM | NCI-H522 51.2 µM | HL-60 42.5 µM | RXF 393 88.1 µM | SR 64 µM | HOP-62 > 100 µM
34.5 µM: HCT-15
active: SK-MEL-2 0.245 µM

CN1Cc2c(ccc3c2OCO3)[C@@H]2[C@H](O)Cc3cc4c(cc3[C@@H]21)OCO4
active: MDA-MB-435 0.52 µM
inactive: Malme-3M 4.63 µM | T47D 9.23 µM | LOX IMVI 4.51 µM | IGROV-1 3.87 µM | COLO 205 2.2 µM | CCRF-CEM 2.82 µM | SK-MEL-2 2.68 µM | A498 2.17 µM | UACC-257 5.26 µM | SK-OV-3 3.16 µM | KM12 2.48 µM | OVCAR-3 2.2 µM | DU-145 4.4 µM | NCI-H522 2.92 µM | HL-60 1.46 µM | RXF 393 2.72 µM | SR 4.15 µM | HOP-62 3.09 µM
2.02 µM: HCT-15

C=C(C)[C@@]1(O[Si](C)(C)C)CCCC[C@@H]1CC(Sc1ccccc1)Sc1ccccc1
inactive: Malme-3M 12.1 µM | T47D 4.26 µM | LOX IMVI 17.9 µM | IGROV-1 15.6 µM | COLO 205 19.9 µM | CCRF-CEM 14.4 µM | SK-MEL-2 15 µM | A498 19.9 µM | UACC-257 15.3 µM | SK-OV-3 20 µM | KM12 10.6 µM | MDA-MB-435 15.6 µM | OVCAR-3 14.1 µM | DU-145 15 µM | NCI-H522 7.83 µM | HL-60 16.7 µM | RXF 393 10.8 µM | SR 11.1 µM | HOP-62 13.8 µM
12.3 µM: HCT-15

c1cc(-c2ccc(-c3nc4ccc(C5=NCCN5)cc4s3)s2)ccc1C1=NCCN1
active: Malme-3M 1.02 µM | T47D 0.483 µM | LOX IMVI 0.262 µM | IGROV-1 0.313 µM | COLO 205 1.11 µM | CCRF-CEM 0.0962 µM | A498 0.719 µM | SK-OV-3 0.711 µM | KM12 0.565 µM | MDA-MB-435 0.841 µM | OVCAR-3 0.979 µM | DU-145 0.19 µM | NCI-H522 0.114 µM | HL-60 0.394 µM | RXF 393 0.152 µM | SR 0.231 µM | HOP-62 0.187 µM
inactive: SK-MEL-2 1.27 µM | UACC-257 22.5 µM
2.17 µM: HCT-15

CN(C)C=O.O=C(Nc1nnn[nH]1)c1nc(O)cc(-c2ccccc2)n1
> 100 µM: HCT-15
inactive: Malme-3M > 100 µM | T47D > 100 µM | LOX IMVI > 100 µM | IGROV-1 > 100 µM | COLO 205 > 100 µM | SK-MEL-2 > 100 µM | A498 > 100 µM | UACC-257 > 100 µM | SK-OV-3 > 100 µM | KM12 > 100 µM | MDA-MB-435 > 100 µM | OVCAR-3 > 100 µM | DU-145 > 100 µM | NCI-H522 > 100 µM | HL-60 > 100 µM | RXF 393 > 100 µM | SR > 100 µM | HOP-62 > 100 µM

O=[N+]([O-])c1ccc(Oc2c(Cl)cc(S(=O)(=O)N/C(=N\O)Nc3ccc(Cl)cc3)cc2Cl)c(Cl)c1
16.3 µM: HCT-15
inactive: Malme-3M 14.6 µM | T47D 13.1 µM | LOX IMVI 17.1 µM | COLO 205 18.8 µM | CCRF-CEM 27.3 µM | SK-MEL-2 17 µM | A498 12.7 µM | UACC-257 15.6 µM | KM12 13.7 µM | MDA-MB-435 16.6 µM | OVCAR-3 12.2 µM | DU-145 13.6 µM | NCI-H522 13 µM | HL-60 26.2 µM | RXF 393 13.2 µM | SR 10.7 µM | HOP-62 16.5 µM

COC(=O)NN=C(c1ccc(Cl)cc1)c1ccc(Cl)cc1
inactive: Malme-3M > 100 µM | T47D > 100 µM | LOX IMVI > 100 µM | IGROV-1 22.9 µM | COLO 205 51.2 µM | CCRF-CEM 67.6 µM | SK-MEL-2 > 100 µM | A498 17.9 µM | UACC-257 > 100 µM | SK-OV-3 > 100 µM | KM12 > 100 µM | MDA-MB-435 > 100 µM | OVCAR-3 > 100 µM | DU-145 80.7 µM | NCI-H522 > 100 µM | HL-60 > 100 µM | RXF 393 22.4 µM | SR 94.2 µM
> 100 µM: HCT-15

N[C@@H]1CCN(c2c(F)cc3c(=O)c(C(=O)O)cn4c3c2Oc2cc3c(ccc5ccccc53)cc2-4)C1
inactive: Malme-3M 5.27 µM | T47D 4.56 µM | LOX IMVI 2.34 µM | IGROV-1 1.82 µM | COLO 205 4.45 µM | SK-MEL-2 5.18 µM | A498 4.83 µM | KM12 5.32 µM | MDA-MB-435 3.24 µM | OVCAR-3 5.73 µM | DU-145 3.28 µM | NCI-H522 3.85 µM | HL-60 7.14 µM | RXF 393 1.64 µM | HOP-62 4.82 µM
1.69 µM: HCT-15
active: CCRF-CEM 0.0482 µM | UACC-257 0.78 µM | SR 0.659 µM

COc1cc(/C=C2\N=C(c3ccccc3)N(c3cc4cc(Sc5ccccc5)ccc4[nH]3)C2=O)cc(OC)c1OC
inactive: Malme-3M 2.96 µM | T47D 8.17 µM | LOX IMVI 11.3 µM | IGROV-1 15.5 µM | COLO 205 11.3 µM | CCRF-CEM 16.9 µM | A498 13.8 µM | UACC-257 14.8 µM | SK-OV-3 21.6 µM | KM12 15 µM | MDA-MB-435 3.84 µM | OVCAR-3 17.8 µM | DU-145 15.2 µM | NCI-H522 2.96 µM | HL-60 14.6 µM | RXF 393 10.1 µM | SR 2.18 µM | HOP-62 15 µM
14.4 µM: HCT-15
